Laboratory results taken from EP3505218B1, “A GENTLE DETERGENT COMPOSITION FOR GREASY AND ACNEIC SKINS” (Unifarco S.p.A., priority 2017, dated 2019).

Tests used:
[1] = Solubility of the raw material; type: physicochemical; details: needs to be pre-dissolved at 80°C in propylene glycol
[2] = tested on: Propionibacterium acnes; details: cited from earlier work; for antibacterial / antimicrobial activity against Propionibacterium Acnes: raw material description, PCA ethyl cocoyl arginate at a pH lower than 7

Row | Molecule | solubility [1] | effectiveness as antibacterial against Propionibacterium acnes ([2]; compared with other surfactants, US2008/0070986) | antibacterial / antimicrobial activity against Propionibacterium Acnes [2]
1 | CCCCCCCCCCCC(=O)N[C@@H](CCCNC(=N)N)C(=O)O [Lauroyl arginine] | poorly soluble |  | 
2 | Laureth-7 citrate |  | 2 magnitude orders less effective | known antibacterial properties
3 | PCA ethyl cocoyl arginate |  |  | antimicrobial activity
